Assay results reported in patent publication US6410590B1, “Compounds having antitumor activity: process for their preparation and pharmaceutical compositions containing them” (Dr. Reddy's Research Foundation, priority 2000, dated 2002).
Where two headings read alike, the source gives them in different places.

Columns and labels:
SW-620 = experiment: Sulforhodamine B growth inhibition, colon panel; format: cell-based, human; details: SW-620, colon, 48 h, SRB, read-out: GROWTH INHIBITION (GI 50)
Protocol: (§1) Each test compound was screened against a battery of cell lines representing eight different types of cancer. In a typical procedure 1×10^4 cells were seeded into each well of 96-well plates in 100 μL volume of RPMI-1640 containing antibiotics and 10% FCS.
(§2) The plates were incubated at 37° C. in presence of CO2. After 24 h, test compounds were evaluated at five 10 fold dilutions ranging from 100 to 0.01 μM. To each test well 100 μL of test compound solution was added and medium with vehicle was added to control wells and the plates were further incubated. After 48 h of incubation, plates were terminated by Sulforhodamine B method.
(§3) The optical density which is proportional to protein mass, is then read by automated spectrophotometric plate readers at a wavelength of 515 nm.

A498 = experiment: Sulforhodamine B growth inhibition, renal panel; format: cell-based, human; details: 48 h, SRB, read-out: GROWTH INHIBITION (GI 50)
Protocol: as §1, §2, §3

HIV-1/MN = experiment: Anti HIV activity, P24 antigen in infected PM-1 cells; format: cell-based; details: 96 h; for inhibition at 1 µM: Human immunodeficiency virus 1, PM1, 1 μM, read-out: Percent Inhibition
Protocol: Human CD4+ T cell line PM-1 used in the assay was cultured in RPMI-1640 medium containing 10% Fetal bovine serum, 2 g/L sodium bicarbonate, 100,000 units/L Pencillin-G and 100 mg/L streptomycin. Healthy PM-1 cells were plated on the first day in a 96 well plate at […]. After 24 h HIV-1/MN was added to the culture and incubated for 2 h for infection. Cells were washed twice with PBS to remove the virus in the culture. Different concentrations of DRF compounds ranging from 10^−4 to 10^−8 M were added to the culture and incubated for 96 h. The viability of cells was then assessed by standard MTT assay and the viral antigen P24 levels were estimated by ELSA method. Based on the MTT assay values the P 24 antigen values were corrected.
All the samples were tested in triplicates and the average was used for calculations. AZT was used as standard compound for comparison.

Human lymphocytes = experiment: Lymphocyte proliferation, tritiated thymidine incorporation; format: cell-based; details: 1 μM; PHA-stimulated human lymphocytes
Protocol: Human lymphocycles were isolated from whole blood by using Ficoll Hypaque Plus (Amersham). On day one, 1 million lymphocytes were seeded into each well of 96 well plate in 100 μL volume of RPMI 1640 medium containing 10% FCS and Phytohemagglutitin A at 10 μg/ml concentration. Plates were incubated at 37° C. in CO2 incubator for 24 h. Test compounds at various concentrations were added to test wells and only medium with vehicle was added to control wells. After 48 h of incubation […] of tritiated thymidine was added to each well. After 24 h of thymidine addition the cells were harvested and the incorporated radioactivity was determined.
Stimulation index (si) was calculated using the formula, […]

MCF-7/ADR = experiment: Sulforhodamine B growth inhibition, breast panel; format: cell-based, human; details: 48 h, SRB, read-out: GROWTH INHIBITION (GI 50)
Protocol: as §1, §2, §3

H522 = experiment: Sulforhodamine B growth inhibition, lung panel; format: cell-based, human; details: SRB, read-out: GROWTH INHIBITION (GI 50)
Protocol: as §1, §2, §3

[1] = Plasma triglyceride and body weight reduction in Swiss albino mice; format: in vivo; details: for Percentage reduction TG: plasma triglyceride
Protocol: (b) Plasma triglyceride and body weight reduction in Swiss albino mice Male Swiss albino mice (SAM) were obtained from NIN and housed in DRF animal house. All these animals were maintained under 12 hour light and dark cycle at 25±1° C. Animals were given standard laboratory chow (NIN, Hyderabad, India) and water, ad libitum. SAM of 20-25 g body weight range (Oliver, P., Plancke, M. O., Marzin, D., Clavey, V., Sauzieres, J and Fruchart, J. C. Effects of fenofibrate, gemfibrozil and nicotinic acid on plasma lipoprotein levels in normal and hyperlipidemic mice. Atherosclerosis. 1988. 70: 107-114).
The test compounds were administered orally to Swiss albino mice at 0.3 to 500 mg/kg dose for 6 days. Control mice were treated with vehicle (Chremophore/DMSO/H2O; dose 10 ml/kg).
The blood samples were collected in fed state 1 hour after drug administration on 0 and 6 day of treatment. The blood was collected from the retro-orbital sinus through heparinised capillary in EDTA containing tubes. After centrifugation, plasma sample was separated for triglyceride (Wieland, O. Methods of Enzymatic analysis. Bergermeyer, H. O., Ed., 1963. 211-214; Trinder, P. Ann. Clin. Biochem. 1969. 6: 24-27). Measurement of plasma triglyceride was done using commercial kits (Dr. Reddy's Diagnostic Division, Hyderabad, India).
The formula used to measure percent reduction in blood sugar/triglycerides is given above.

M14 = experiment: Sulforhodamine B growth inhibition, melanoma panel; format: cell-based, human; details: 48 h, SRB, read-out: GROWTH INHIBITION (GI 50)
Protocol: as §1, §2, §3

SKOV-3 = experiment: Sulforhodamine B growth inhibition, ovarian panel; format: cell-based, human; details: SKOV-3, ovarian, 48 h, SRB, read-out: GROWTH INHIBITION (GI 50)
Protocol: as §1, §2, §3

U251 = experiment: Sulforhodamine B growth inhibition, CNS panel; format: cell-based, human; details: SRB, read-out: GROWTH INHIBITION (GI 50)
Protocol: as §1, §2, §3

DU145 = experiment: Sulforhodamine B growth inhibition, prostate panel; format: cell-based, human; details: SRB, read-out: GROWTH INHIBITION (GI 50)
Protocol: as §1, §2, §3

tumor cell lines = details: cited from earlier work
[2] = tested on: P388 lymphocytic leukemia; details: cited from earlier work
KB = details: cited from earlier work
UACC62 = experiment: Sulforhodamine B growth inhibition, melanoma panel; format: cell-based; details: Homo sapiens, UACC-62, 48 h, SRB, read-out: GROWTH INHIBITION (GI 50)
Protocol: as §1, §2, §3

HIV-1(IIIB) = details: cited from earlier work

3,14,19-TRIACETYL 8,17-EPOXY ANDROGRAPHOLIDE [Example-2]
GI50 (SW-620): 1000 nM | GI50 (A498): 100 nM | Percent Inhibition (HIV-1/MN; 0.1 μM): 75.31% | Percent Inhibition (HIV-1/MN; 1 μM): 77.25% | Stimulation Index (SI) (Human lymphocytes): 32 | GI50 (MCF-7/ADR): 5500 nM | GI50 (H522; 48 h): 20000 nM | Percentage reduction TG ([1]; 250 mg/kg orally for 6 days): 19% | GI50 (M14): 7500 nM | GI50 (SKOV-3): 4000 nM | GI50 (U251; 48 h): 3000 nM | GI50 (DU145; 48 h): 20000 nM

C=C1CCC2[C@](C)(CC[C@@H](O)[C@@]2(C)CO)C1/C=C/C1=CCOC1=O (stereo partly drawn) [14-deoxy-11,12-didehydroandrographolide]
cytotoxic activity in tumor cell lines (tumor cell lines): no cytotoxic activity

C=C1CC[C@@H]2[C@](C)(CO)[C@H](O)CC[C@@]2(C)[C@@H]1C/C=C1/C(=O)OC[C@H]1O [Andrographolide]
cytotoxic activity against P388 [2]: potent cytotoxic activity | cytotoxic activity against KB (KB): potent cytotoxic activity

CC1(C)OC[C@@]2(C)C3CCC4(CO4)C(C/C=C4/C(=O)OC[C@H]4O)[C@@]3(C)CC[C@H]2O1 (stereo partly drawn) [Example 5, 8,17-EPOXY ANDROGRAPHOLIDE 3,19-ACETONIDE]
melting point: 179 °C

CCC(=O)OC[C@@]1(C)C2CC[C@]3(CO3)C(C/C=C3/C(=O)OC[C@H]3OC(=O)/C=C/c3ccc4c(c3)OCO4)[C@@]2(C)CC[C@H]1OC(=O)CC (stereo partly drawn) [Example 11, 14-[3′,4′-METHYLENEDIOXYCINNAMOYL]3,19-DIPROPIONYL 8,17-EPOXY ANDROGRAPHOLIDE]
melting point: 76.7 °C

C[C@]12CC[C@@H](OC(=O)CCl)[C@@](C)(COC(=O)CCl)C1CC[C@]1(CO1)C2C/C=C1/C(=O)OC[C@H]1OC(=O)CCl (stereo partly drawn) [Example-4, 3,14,19-TRIS CHLORO ACETYL 8,17-EPOXY ANDROGRAPHOLIDE]
GI50 (UACC62): 550 nM | GI50 (SW-620; Homo sapiens): 25000 nM | GI50 (A498; Homo sapiens): 15000 nM | GI50 (MCF-7/ADR; Homo sapiens, NCI/ADR-RES): 800 nM | GI50 (H522; Homo sapiens, NCI-H522, 48 h): 5500 nM | GI50 (SKOV-3; Homo sapiens, SK-OV-3): 450 nM | GI50 (U251; Homo sapiens, U-251, 48 h): 800 nM | GI50 (DU145; Homo sapiens, DU-145, 48 h): 4500 nM

C[C@]12CC[C@@H](O)[C@@](C)(CO)C1CC[C@]1(CO1)C2C/C=C1/C(=O)OC[C@H]1OC(=O)/C=C/c1ccccc1 (stereo partly drawn) [Example-7, 14-CINNAMOYL 3,19-DIHYDROXY 8,17-EPOXY ANDROGRAPHOLIDE]
GI50 (SW-620; Homo sapiens): 500 nM | GI50 (A498; Homo sapiens): 9000 nM | inhibition at 1 µM (HIV-1/MN): 68.4% | Stimulation Index (SI) (Human lymphocytes): 25 | GI50 (MCF-7/ADR; Homo sapiens, NCI/ADR-RES): 2000 nM | GI50 (H522; Homo sapiens, NCI-H522, 48 h): 6000 nM | Percentage reduction Body weight ([1]; 100 mg/kg orally for 6 days): 29% | Percentage reduction TG ([1]; 100 mg/kg orally for 6 days): 42% | Percentage reduction Body weight ([1]; 250 mg/kg orally for 6 days): 13% | Percentage reduction TG ([1]; 250 mg/kg orally for 6 days): 52% | Percentage reduction TG ([1]; 500 mg/kg orally for 6 days): 62% | GI50 (M14; Homo sapiens): 1000 nM | GI50 (SKOV-3; Homo sapiens, SK-OV-3): 4000 nM | GI50 (U251; Homo sapiens, U-251, 48 h): 6000 nM | GI50 (DU145; Homo sapiens, DU-145, 48 h): 5500 nM

CCC(=O)OC[C@@]1(C)C2CC[C@]3(CO3)C(C/C=C3/C(=O)OC[C@H]3OC(=O)/C=C/c3ccccc3)[C@@]2(C)CC[C@H]1OC(=O)CC (stereo partly drawn) [Example-8, 14-CINNAMOYL 3,19-DIPROPIONYL 8,17-EPOXY ANDROGRAPHOLIDE]
GI50 (SW-620; Homo sapiens): 2500 nM | GI50 (A498; Homo sapiens): 3000 nM | GI50 (MCF-7/ADR; Homo sapiens, NCI/ADR-RES): 80 nM | GI50 (H522; Homo sapiens, NCI-H522, 48 h): 20000 nM | GI50 (M14; Homo sapiens): 2500 nM | GI50 (SKOV-3; Homo sapiens, SK-OV-3): 10000 nM | GI50 (U251; Homo sapiens, U-251, 48 h): 6000 nM | GI50 (DU145; Homo sapiens, DU-145, 48 h): 4000 nM

CCC(=O)OC[C@]1(C)C(OC(=O)CC)CC[C@]2(C)C(C/C=C3/C(=O)OCC3OC(=O)/C=C/c3ccc(OC)cc3)[C@]3(CCC12)CO3 (stereo partly drawn) [Example-9, 14-[4′-METHOXYCINNAMOYL]3,19-DIPROPIONYL 8,17-EPOXY ANDROGRAPHOLIDE]
GI50 (SW-620; Homo sapiens): 600 nM | GI50 (A498; Homo sapiens): 3000 nM | GI50 (MCF-7/ADR; Homo sapiens, NCI/ADR-RES): 3000 nM | GI50 (H522; Homo sapiens, NCI-H522, 48 h): 4800 nM | GI50 (M14; Homo sapiens): 750 nM | GI50 (SKOV-3; Homo sapiens, SK-OV-3): 2000 nM | GI50 (U251; Homo sapiens, U-251, 48 h): 3000 nM | GI50 (DU145; Homo sapiens, DU-145, 48 h): 2000 nM

CCC(=O)OC[C@@]1(C)C2CC[C@]3(CO3)C(C/C=C3/C(=O)OC[C@H]3OC(=O)/C=C/c3ccc(OC)c(OC)c3)[C@@]2(C)CC[C@H]1OC(=O)CC (stereo partly drawn) [Example-10, 8,17-EPOXY 14-[3′,4′-DIMETHOXYCINNAMOYL]3,19-DIPROPIONYL ANDROGRAPHOLIDE]
GI50 (SW-620; Homo sapiens): 400 nM | GI50 (A498; Homo sapiens): 3500 nM | GI50 (MCF-7/ADR; Homo sapiens, NCI/ADR-RES): 1500 nM | GI50 (H522; Homo sapiens, NCI-H522, 48 h): 7500 nM | GI50 (M14; Homo sapiens): 800 nM | GI50 (SKOV-3; Homo sapiens, SK-OV-3): 2500 nM | GI50 (U251; Homo sapiens, U-251, 48 h): 2000 nM | GI50 (DU145; Homo sapiens, DU-145, 48 h): 2500 nM

CCC(=O)OC[C@@]1(C)C2CC[C@]3(CO3)C(C/C=C3/C(=O)OC[C@H]3OC(=O)CNC(=O)OC(C)(C)C)[C@@]2(C)CC[C@H]1OC(=O)CC (stereo partly drawn) [Example-13, 14-[N-BOC GLYCINYL]3,19-DIPROPIONYL 8,17-EPOXY ANDROGRAPHOLIDE]
inhibition at 1 µM (HIV-1/MN): 73.9% | Stimulation Index (SI) (Human lymphocytes): 24 | Percentage reduction TG ([1]; 250 mg/kg orally for 6 days): 31%

C=C1CC[C@@H]2[C@](C)(CO[C@@H]3O[C@H](CO)[C@@H](O)[C@H](O)[C@H]3O)CCC[C@@]2(C)[C@@H]1CCC1=CCOC1=O [neoandrographolide]
cytotoxic activity in tumor cell lines (tumor cell lines): no cytotoxic activity

Dehydroandrographolide Succinic acid monoester [DASM]
minimal concentration inhibitory to HIV-1(IIIB) (HIV-1(IIIB)): 1.6 to 3.1 µg/mL
